How the values were obtained:
Type in all cases: in vivo, mouse
[1] = test system: SH-SY5Y human NBM cancer cell xenograft; test: Xenograft Tumor Model SH-SY5Y; details: comparator day 28, 8 mg/kg dose, p-value <0.001
Protocol: (§1) The following protocol can be used to measure reductions in tumor volume in response to an active pharmaceutical ingredient. Expand human NBM cancer cells SH-SY5Y (ATCC, #CRL-2226) in culture, harvest, and inject 5×10^6 cells in 200 μL of 1:1 solution of HBSS and Matrigel® subcutaneously into the right rear flank of female CD-1 nu/nu mice (20-24 g, Charles River Laboratories). Expand human NBM cancer cells KELLY (Sigma-#92110411) in culture, harvest, and inject 5×10^6 cells in 200 μL of 1:1 solution of HBSS and Matrigel® subcutaneously into the right rear flank of female CB-17 SCID mice (20-24 g, Charles River Laboratories). Expand human NBM cancer cells IMR-32 (ATCC, #CCL-127) in culture, harvest, and inject 5×10^6 cells in 200 μL of 1:1 solution of HBSS and Matrigel® subcutaneously into the right rear flank of female CB-17 SCID mice (20-24 g, Charles River Laboratories).
(§2) For all “ST” models (encompassing RMS and LMS), patient-derived xenografts are established from viable human tumor tissue and are serially passaged in animals a limited number of times to maintain tumor heterogeneity. […] Tumor response is determined by tumor volume measurement performed twice per week during the course of treatment.

[2] = test system: ST240 LMS patient-derived xenograft; test: Xenograft Tumor Model ST240; details: comparator day 29, p-value 0.022
Protocol: For all “ST” models (encompassing RMS and LMS), patient-derived xenografts are established from viable human tumor tissue and are serially passaged in animals a limited number of times to maintain tumor heterogeneity. In subcutaneous models, athymic nude mice (Crl:NU(NCr)-Foxn1nu) or CB-17 SCID mice (CRL-CB17/Icr-Prkdcscid/IcrIcoCrl) are injected or implanted unilaterally into the flank with tumor fragments harvested from host animals, each implanted from a specific passage lot. For all studies, measure tumor growth and body weight twice per week beginning on the seventh day after implantation. When tumor size reaches 150-300 mm^3, randomize animals and group into groups of 4-7 animals. Prepare test compound in an appropriate vehicle (e.g. vehicle can be 20% Captisol® in sterile water) and administer subcutaneously for three consecutive days followed by a four day dosing holiday and repeat for a minimum of four weeks. Tumor response is determined by tumor volume measurement performed twice per week during the course of treatment.

[3] = test system: CTG-1116 RMS patient-derived xenograft; test: Xenograft Tumor Model CTG-1116; details: comparator day 17, p-value <0.001
Protocol: (§3) The efficacy of 5-(5-(2-(3-aminopropoxy)-6-methoxyphenyl)-1H-pyrazol-3-ylamino)pyrazine-2-carbonitrile methanesulfonic acid monohydrate is measurable in vivo in mouse models of neuroblastomas and human pediatric and adult sarcomas. 5-(5-(2-(3-Aminopropoxy)-6-methoxyphenyl)-1H-pyrazol-3-ylamino)pyrazine-2-carbonitrile methanesulfonic acid monohydrate (10 mg/kg) can be administered subcutaneously to nude mice bearing either cell-derived xenografts (CDX) or patient-derived xenografts (PDX) of human rhabdomyosarcoma, desmoplastic small round cell tumor (DSRCT), osteosarcoma, and Ewing's sarcoma using a 3 day on, 4 day off b.i.d. dosing schedule. Tumor volume and body weight can be measured two times per week. Tumor-specific parameters can be evaluated by immumohistochemistry. […]
as §2

[4] = test system: CTG-0242 OS patient-derived xenograft; test: Xenograft Tumor Model CTG-0242; details: comparator day 28, p-value 0.012
Protocol: as §3, §2

[5] = test system: IMR-32 human NBM cancer cell xenograft; test: Xenograft Tumor Model IMR-32; details: IMR-32, NBM, comparator day 66, p-value <0.001
Protocol: as §1, §2

[6] = test system: Alveoloar Rhabdomyosarcoma xenograft models; test: Sarcoma xenograft models by tumor subtype: Alveolar Rhabdomyosarcoma; details: age of patients 17-24 years
Protocol: The efficacy of 5-(5-(2-(3-aminopropoxy)-6-methoxyphenyl)-1H-pyrazol-3-ylamino)pyrazine-2-carbonitrile methanesulfonic acid monohydrate is measurable in vivo in mouse models of neuroblastomas and human pediatric and adult sarcomas. 5-(5-(2-(3-Aminopropoxy)-6-methoxyphenyl)-1H-pyrazol-3-ylamino)pyrazine-2-carbonitrile methanesulfonic acid monohydrate (10 mg/kg) can be administered subcutaneously to nude mice bearing either cell-derived xenografts (CDX) or patient-derived xenografts (PDX) of human rhabdomyosarcoma, desmoplastic small round cell tumor (DSRCT), osteosarcoma, and Ewing's sarcoma using a 3 day on, 4 day off b.i.d. dosing schedule. Tumor volume and body weight can be measured two times per week. Tumor-specific parameters can be evaluated by immumohistochemistry.
Expand human RMS cancer cells SJCRH-30 (St. Jude Children's Research Hospital) in culture, harvest, and inject 5×10^6 cells in 200 μL of HBSS subcutaneously into the right rear flank of female athymic nude mice (20-22 g, Harlan Laboratories). […]
as §2

Compound: COc1cccc(OCCCN)c1-c1cc(Nc2cnc(C#N)cn2)n[nH]1 [Example 5, 5-(5-(2-(3-Aminopropoxy)-6-methoxyphenyl)-1H-pyrazol-3-ylamino)pyrazine-2-carbonitrile methanesulfonic acid monohydrate]
- % Regression [1]: −21%
- % T/C [2]: 67%
- % T/C [3]: 8%
- % T/C [4]: 6%
- % Regression [5]: −72%
- Result of Treatment: Complete Response (models) [6]: 2/2 Complete

— patent US12558345B2, “CHK1/2 inhibitors for use in the treatment of neuroblastomas and/or soft tissue sarcomas” (Eli Lilly and Company, priority 2015, dated 2026)
